Results taken from patent US20230365546A1, “5-SUBSTITUTED INDOLE 3-AMIDE DERIVATIVES, PREPARATION METHOD AND USE THEREOF” (ORIGIANT PHARMACEUTICAL CO., LTD, priority 2020, published 2023).

Experiments:
Assay in all cases: Kinase Profiler 10 μM panel
[1] = target: PI3 Kinase (p110a(E545K)/p85a)(m) (Mus musculus (Mouse), UniProt P42337, E545K)
Experimental: (§1) In vitro kinase assays were conducted using Kinase Profiler services provided by Eurofins. The experimental method was as follows: the small molecule compound to be tested (0.001-10 μM), the protein kinase to be tested were incubated with a buffer containing substrate, 10 mM magnesium acetate, and [γ-^33P-ATP], the reaction was started by adding Mg\TPmix, after incubation for a period of time at room temperature, a 3% phosphate solution was added to the buffer to stop the reaction. Subsequently, 10 μL of the reaction mixture was quantitatively pipetted onto P30 filter paper, which was washed three times with 75 mM phosphate solution and then once with methanol. The P30 filter paper was air-dried and scintillation fluid was added for scintillation counting.

Flt3(h) = Flt3(h) (Homo sapiens (Human), UniProt P36888)
Experimental: as §1

Abl(Y253F)(h) = Abl(Y253F)(h) (Homo sapiens (Human), UniProt P00519, Y253F)
Experimental: as §1

[2] = target: PI3 Kinase (p110a/p85a)(m) (Mus musculus (Mouse), UniProt P42337)
Experimental: as §1

[3] = target: PI3 Kinase (p110b/p85a)(h) (Homo sapiens (Human), UniProt P42338)
Experimental: as §1

ALK(h) = ALK(h) (Homo sapiens (Human), UniProt Q9UM73)
Experimental: as §1

ALK4(h) = ALK4(h) (Homo sapiens (Human), UniProt P36896)
Experimental: as §1

Hck(h) activated = Hck(h) activated (Homo sapiens (Human), UniProt P08631)
Experimental: as §1

PKAcβ(h) = PKAcβ(h) (Homo sapiens (Human), UniProt P22694)
Experimental: as §1

PKBγ(h) = PKBγ(h) (Homo sapiens (Human), UniProt Q9Y243)
Experimental: as §1

BIKe(h) = BIKe(h) (Homo sapiens (Human), UniProt Q9NSY1)
Experimental: as §1

PKCϵ(h) = PKCϵ(h) (Homo sapiens (Human), UniProt Q02156)
Sequence of PKCϵ(h) (Q02156 whole entry): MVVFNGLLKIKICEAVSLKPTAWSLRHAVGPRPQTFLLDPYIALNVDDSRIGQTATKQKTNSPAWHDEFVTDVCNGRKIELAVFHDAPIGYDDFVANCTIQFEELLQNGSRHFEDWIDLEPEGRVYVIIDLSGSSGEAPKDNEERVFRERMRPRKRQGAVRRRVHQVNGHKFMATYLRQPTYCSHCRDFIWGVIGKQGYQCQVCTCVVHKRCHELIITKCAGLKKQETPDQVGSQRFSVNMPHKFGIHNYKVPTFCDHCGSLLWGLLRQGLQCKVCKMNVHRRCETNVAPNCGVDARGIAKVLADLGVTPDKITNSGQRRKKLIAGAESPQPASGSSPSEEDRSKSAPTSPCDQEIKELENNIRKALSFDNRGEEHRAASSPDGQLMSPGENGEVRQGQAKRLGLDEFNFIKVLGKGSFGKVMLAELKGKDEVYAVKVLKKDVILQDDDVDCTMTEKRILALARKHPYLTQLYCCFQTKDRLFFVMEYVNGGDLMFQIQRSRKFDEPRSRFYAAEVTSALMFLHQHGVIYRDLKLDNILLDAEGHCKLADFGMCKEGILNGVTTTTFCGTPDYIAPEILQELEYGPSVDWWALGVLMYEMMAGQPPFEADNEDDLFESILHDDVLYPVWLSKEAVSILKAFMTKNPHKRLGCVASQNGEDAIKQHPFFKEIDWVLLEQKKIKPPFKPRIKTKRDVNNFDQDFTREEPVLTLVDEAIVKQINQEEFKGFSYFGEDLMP
Experimental: as §1

Plk3(h) = Plk3(h) (Homo sapiens (Human), UniProt Q9H4B4)
Experimental: as §1

Lck(h) activated = Lck(h) activated (Homo sapiens (Human), UniProt P06239)
Experimental: as §1

LTK(h) = LTK(h) (Homo sapiens (Human), UniProt P29376)
Experimental: as §1

Rsk3(h) = Rsk3(h) (Homo sapiens (Human), UniProt Q15349)
Experimental: as §1

MLK1(h) = MLK1(h) (Homo sapiens (Human), UniProt P80192)
Sequence of MLK1(h) (P80192 whole entry): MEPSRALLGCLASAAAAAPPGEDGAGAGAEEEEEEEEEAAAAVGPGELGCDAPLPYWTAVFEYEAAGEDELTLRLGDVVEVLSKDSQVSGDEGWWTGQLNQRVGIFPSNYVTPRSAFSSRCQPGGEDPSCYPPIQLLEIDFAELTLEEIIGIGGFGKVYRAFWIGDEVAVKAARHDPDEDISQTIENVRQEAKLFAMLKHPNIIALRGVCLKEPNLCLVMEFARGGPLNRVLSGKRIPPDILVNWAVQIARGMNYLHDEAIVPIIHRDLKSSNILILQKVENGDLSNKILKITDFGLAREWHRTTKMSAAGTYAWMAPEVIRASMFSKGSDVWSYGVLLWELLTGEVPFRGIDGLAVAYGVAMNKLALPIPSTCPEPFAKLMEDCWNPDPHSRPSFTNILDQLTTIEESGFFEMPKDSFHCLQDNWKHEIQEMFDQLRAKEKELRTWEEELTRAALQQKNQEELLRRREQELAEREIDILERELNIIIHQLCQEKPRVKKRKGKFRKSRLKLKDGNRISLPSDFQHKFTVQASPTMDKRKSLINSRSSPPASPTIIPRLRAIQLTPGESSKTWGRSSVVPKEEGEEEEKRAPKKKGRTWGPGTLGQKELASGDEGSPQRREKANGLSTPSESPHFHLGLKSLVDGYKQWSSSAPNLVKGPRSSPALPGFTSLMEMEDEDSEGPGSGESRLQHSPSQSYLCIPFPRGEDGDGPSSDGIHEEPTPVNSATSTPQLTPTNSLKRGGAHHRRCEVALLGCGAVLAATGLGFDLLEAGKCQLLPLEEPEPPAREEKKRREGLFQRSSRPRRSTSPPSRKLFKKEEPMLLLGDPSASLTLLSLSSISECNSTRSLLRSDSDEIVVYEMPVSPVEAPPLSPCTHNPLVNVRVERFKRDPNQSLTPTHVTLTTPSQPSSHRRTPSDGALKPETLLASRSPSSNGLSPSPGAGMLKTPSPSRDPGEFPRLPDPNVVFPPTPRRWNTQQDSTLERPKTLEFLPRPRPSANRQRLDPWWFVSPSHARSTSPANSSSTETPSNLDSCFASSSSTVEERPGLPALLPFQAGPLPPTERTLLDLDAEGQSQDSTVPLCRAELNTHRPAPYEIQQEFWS
Experimental: as §1

STK32B(h) = STK32B(h) (Homo sapiens (Human), UniProt Q9NY57)
Experimental: as §1

TAF1L(h) = TAF1L(h) (Homo sapiens (Human), UniProt Q8IZX4)
Experimental: as §1

TAO2(h) = TAO2(h) (Homo sapiens (Human), UniProt Q9UL54)
Experimental: as §1

MuSK(h) = MuSK(h) (Homo sapiens (Human), UniProt O15146)
Experimental: as §1

DNA-PK(h) = DNA-PK(h) (Homo sapiens (Human), UniProt P78527)
Experimental: as §1

Tie2(Y897S)(h) = Tie2(Y897S)(h) (Homo sapiens (Human), UniProt Q02763, Y897S)
Sequence of Tie2(Y897S)(h) (Q02763 23-1124 Y897S): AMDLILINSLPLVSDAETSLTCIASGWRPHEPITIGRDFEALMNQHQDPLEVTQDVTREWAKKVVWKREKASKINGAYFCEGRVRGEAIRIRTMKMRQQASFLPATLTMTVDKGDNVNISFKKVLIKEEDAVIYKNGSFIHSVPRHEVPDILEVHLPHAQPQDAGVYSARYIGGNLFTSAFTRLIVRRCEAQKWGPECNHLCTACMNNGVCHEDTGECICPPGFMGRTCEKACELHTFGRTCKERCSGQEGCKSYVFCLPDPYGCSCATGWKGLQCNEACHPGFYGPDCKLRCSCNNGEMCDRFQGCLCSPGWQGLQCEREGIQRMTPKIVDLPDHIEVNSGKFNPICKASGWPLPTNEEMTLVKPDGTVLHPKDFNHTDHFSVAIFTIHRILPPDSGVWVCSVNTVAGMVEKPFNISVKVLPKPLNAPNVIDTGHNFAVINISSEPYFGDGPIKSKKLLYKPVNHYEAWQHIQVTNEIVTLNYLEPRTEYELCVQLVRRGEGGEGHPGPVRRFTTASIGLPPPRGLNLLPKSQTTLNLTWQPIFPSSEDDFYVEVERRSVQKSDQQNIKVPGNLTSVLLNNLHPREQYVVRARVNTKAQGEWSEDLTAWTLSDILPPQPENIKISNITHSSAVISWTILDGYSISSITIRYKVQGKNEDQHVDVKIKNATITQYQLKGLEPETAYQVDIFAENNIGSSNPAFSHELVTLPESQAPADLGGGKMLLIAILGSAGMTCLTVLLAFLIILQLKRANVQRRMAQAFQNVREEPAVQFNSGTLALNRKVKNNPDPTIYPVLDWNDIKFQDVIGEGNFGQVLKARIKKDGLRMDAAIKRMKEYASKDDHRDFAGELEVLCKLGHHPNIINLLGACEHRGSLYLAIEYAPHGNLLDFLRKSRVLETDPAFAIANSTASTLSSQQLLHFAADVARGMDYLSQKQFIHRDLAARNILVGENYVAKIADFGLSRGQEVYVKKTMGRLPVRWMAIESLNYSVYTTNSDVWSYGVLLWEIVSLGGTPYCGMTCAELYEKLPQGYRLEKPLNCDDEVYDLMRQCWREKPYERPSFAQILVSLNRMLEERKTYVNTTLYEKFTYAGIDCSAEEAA
Experimental: as §1

NEK3(h) = NEK3(h) (Homo sapiens (Human), UniProt P51956)
Experimental: as §1

NEK6(h) = NEK6(h) (Homo sapiens (Human), UniProt Q9HC98)
Experimental: as §1

EphA1(h) = EphA1(h) (Homo sapiens (Human), UniProt P21709)
Sequence of EphA1(h) (P21709 26-976): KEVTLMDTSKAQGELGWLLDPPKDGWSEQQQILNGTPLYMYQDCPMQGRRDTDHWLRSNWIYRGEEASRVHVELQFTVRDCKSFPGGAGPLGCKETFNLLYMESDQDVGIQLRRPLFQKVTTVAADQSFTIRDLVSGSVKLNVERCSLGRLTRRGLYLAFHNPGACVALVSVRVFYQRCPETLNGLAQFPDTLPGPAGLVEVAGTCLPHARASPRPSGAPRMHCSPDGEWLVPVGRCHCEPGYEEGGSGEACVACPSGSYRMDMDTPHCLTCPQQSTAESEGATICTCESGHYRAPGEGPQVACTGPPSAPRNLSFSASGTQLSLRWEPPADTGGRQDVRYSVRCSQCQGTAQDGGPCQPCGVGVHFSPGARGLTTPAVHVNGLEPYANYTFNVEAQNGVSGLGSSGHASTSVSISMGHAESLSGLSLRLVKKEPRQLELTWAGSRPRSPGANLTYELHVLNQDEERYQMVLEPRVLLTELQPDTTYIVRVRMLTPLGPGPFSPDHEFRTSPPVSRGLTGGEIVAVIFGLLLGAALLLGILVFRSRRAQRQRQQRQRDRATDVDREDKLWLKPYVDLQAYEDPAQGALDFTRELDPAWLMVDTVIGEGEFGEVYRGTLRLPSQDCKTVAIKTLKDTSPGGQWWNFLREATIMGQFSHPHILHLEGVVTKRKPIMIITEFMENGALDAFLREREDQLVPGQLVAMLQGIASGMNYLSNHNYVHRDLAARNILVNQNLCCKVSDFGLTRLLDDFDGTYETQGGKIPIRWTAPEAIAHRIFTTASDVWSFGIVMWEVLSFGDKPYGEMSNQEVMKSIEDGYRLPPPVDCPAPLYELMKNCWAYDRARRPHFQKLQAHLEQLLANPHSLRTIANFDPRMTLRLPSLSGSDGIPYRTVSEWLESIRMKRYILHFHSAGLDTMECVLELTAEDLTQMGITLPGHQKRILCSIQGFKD
Experimental: as §1

PAK6(h) = PAK6(h) (Homo sapiens (Human), UniProt Q9NQU5)
Experimental: as §1

EphB3(h) = EphB3(h) (Homo sapiens (Human), UniProt P54753)
Experimental: as §1

PDGFRα(D842V)(h) = PDGFRα(D842V)(h) (Homo sapiens (Human), UniProt P16234, D842V)
Sequence of PDGFRα(D842V)(h) (P16234 24-1089 D842V): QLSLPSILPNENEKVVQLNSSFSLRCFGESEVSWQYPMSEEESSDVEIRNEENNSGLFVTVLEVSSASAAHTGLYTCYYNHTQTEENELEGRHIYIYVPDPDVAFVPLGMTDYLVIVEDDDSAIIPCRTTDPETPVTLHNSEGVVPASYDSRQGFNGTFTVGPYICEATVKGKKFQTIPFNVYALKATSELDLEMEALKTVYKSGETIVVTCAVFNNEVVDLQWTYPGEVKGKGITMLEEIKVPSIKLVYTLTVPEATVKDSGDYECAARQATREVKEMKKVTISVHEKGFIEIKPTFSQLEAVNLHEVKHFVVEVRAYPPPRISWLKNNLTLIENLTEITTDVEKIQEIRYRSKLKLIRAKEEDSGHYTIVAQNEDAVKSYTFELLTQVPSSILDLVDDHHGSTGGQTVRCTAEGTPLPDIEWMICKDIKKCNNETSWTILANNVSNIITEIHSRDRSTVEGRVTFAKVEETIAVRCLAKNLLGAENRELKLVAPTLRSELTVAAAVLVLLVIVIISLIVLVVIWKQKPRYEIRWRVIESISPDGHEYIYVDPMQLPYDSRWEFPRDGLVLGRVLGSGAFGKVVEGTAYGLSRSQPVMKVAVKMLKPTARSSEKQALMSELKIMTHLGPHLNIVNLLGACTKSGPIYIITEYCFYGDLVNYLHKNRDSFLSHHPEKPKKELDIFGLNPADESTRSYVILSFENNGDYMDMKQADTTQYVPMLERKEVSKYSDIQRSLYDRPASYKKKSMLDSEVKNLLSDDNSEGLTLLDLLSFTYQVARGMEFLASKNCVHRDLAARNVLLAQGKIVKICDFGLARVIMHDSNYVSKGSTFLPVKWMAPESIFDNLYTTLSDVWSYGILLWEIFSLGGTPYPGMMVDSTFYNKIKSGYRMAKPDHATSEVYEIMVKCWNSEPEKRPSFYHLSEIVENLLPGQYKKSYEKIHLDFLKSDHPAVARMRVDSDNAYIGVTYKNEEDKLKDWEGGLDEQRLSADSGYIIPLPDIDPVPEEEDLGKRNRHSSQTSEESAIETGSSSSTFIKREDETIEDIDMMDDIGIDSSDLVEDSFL
Experimental: as §1

PDGFRα(h) = PDGFRα(h) (Homo sapiens (Human), UniProt P16234)
Sequence of PDGFRα(h) (P16234 24-1089): as the sequence (P16234 24-1089 D842V) above, with V819D counted along it
Experimental: as §1

PDHK2(h) = PDHK2(h) (Homo sapiens (Human), UniProt Q15119)
Experimental: as §1

FGFR2(h) = FGFR2(h) (Homo sapiens (Human), UniProt P21802)
Experimental: as §1

ZIPK(h) = ZIPK(h) (Homo sapiens (Human), UniProt O43293)
Experimental: as §1

Structure (SMILES): C[C@H](NC(=O)c1c[nH]c2ccc(-c3ccc4nc(NC(=O)C5CC5)sc4c3)cc12)c1cccc(F)c1 [Compound 34, (S)-5-(2-(cyclopropanecarboxamido)benzo[d]thiazol-6-yl)-N-(1-(3-fluorophenyl)ethyl)-1H-indole-3-carboxamide]
- Inhibition ratio [1]: 24%
- Inhibition ratio (Flt3(h)): 79%
- Inhibition ratio (Abl(Y253F)(h)): 95%
- Inhibition ratio [2]: 43%
- Inhibition ratio [3]: 16%
- Inhibition ratio (ALK(h)): 48%
- Inhibition ratio (ALK4(h)): 3%
- Inhibition ratio (Hck(h) activated): 26%
- Inhibition ratio (PKAcβ(h)): −4%
- Inhibition ratio (PKBγ(h)): 11%
- Inhibition ratio (BIKe(h)): 8%
- Inhibition ratio (PKCϵ(h)): −8%
- Inhibition ratio (Plk3(h)): 9%
- Inhibition ratio (Lck(h) activated): 76%
- Inhibition ratio (LTK(h)): 23%
- Inhibition ratio (Rsk3(h)): 49%
- Inhibition ratio (MLK1(h)): 98%
- Inhibition ratio (STK32B(h)): −2%
- Inhibition ratio (TAF1L(h)): 58%
- Inhibition ratio (TAO2(h)): 58%
- Inhibition ratio (MuSK(h)): 88%
- Inhibition ratio (DNA-PK(h)): 24%
- Inhibition ratio (Tie2(Y897S)(h)): 88%
- Inhibition ratio (NEK3(h)): 10%
- Inhibition ratio (NEK6(h)): 4%
- Inhibition ratio (EphA1(h)): 3%
- Inhibition ratio (PAK6(h)): −14%
- Inhibition ratio (EphB3(h)): 3%
- Inhibition ratio (PDGFRα(D842V)(h)): 56%
- Inhibition ratio (PDGFRα(h)): 32%
- Inhibition ratio (PDHK2(h)): 3%
- Inhibition ratio (FGFR2(h)): 63%
- Inhibition ratio (ZIPK(h)): −4%

Structure (SMILES): C[C@H](NC(=O)c1cn(C)c2ccc(-c3ccn4nc(NC(=O)C5CC5)nc4c3)cc12)c1cccc(F)c1 [Compound 94, (S)-5-(2-(cyclopropanecarboxamido)-[1,2,4]triazolo[1,5-a]pyridin-7-yl)-N-(1-(3-fluorophenyl)ethyl)-1-methyl-1H-indole-3-carboxamide]
- Inhibition ratio/% [1]: 32%
- Inhibition ratio/% (Flt3(h)): 27%
- Inhibition ratio/% (Abl(Y253F)(h)): 23%
- Inhibition ratio/% [2]: −16%
- Inhibition ratio/% [3]: −7%
- Inhibition ratio/% (ALK(h)): −7%
- Inhibition ratio/% (ALK4(h)): −18%
- Inhibition ratio/% (Hck(h) activated): −12%
- Inhibition ratio/% (PKAcβ(h)): 40%
- Inhibition ratio/% (PKBγ(h)): 31%
- Inhibition ratio/% (BIKe(h)): −2%
- Inhibition ratio/% (PKCϵ(h)): 35%
- Inhibition ratio/% (Plk3(h)): 12%
- Inhibition ratio/% (Lck(h) activated): 46%
- Inhibition ratio/% (LTK(h)): 5%
- Inhibition ratio/% (Rsk3(h)): 27%
- Inhibition ratio/% (MLK1(h)): 94%
- Inhibition ratio/% (STK32B(h)): 27%
- Inhibition ratio/% (TAF1L(h)): 48%
- Inhibition ratio/% (TAO2(h)): −14%
- Inhibition ratio/% (MuSK(h)): 13%
- Inhibition ratio/% (DNA-PK(h)): 47%
- Inhibition ratio/% (Tie2(Y897S)(h)): 18%
- Inhibition ratio/% (NEK3(h)): 14%
- Inhibition ratio/% (NEK6(h)): 23%
- Inhibition ratio/% (EphA1(h)): −12%
- Inhibition ratio/% (PAK6(h)): 49%
- Inhibition ratio/% (EphB3(h)): 26%
- Inhibition ratio/% (PDGFRα(D842V)(h)): 37%
- Inhibition ratio/% (PDGFRα(h)): 51%
- Inhibition ratio/% (PDHK2(h)): 32%
- Inhibition ratio/% (FGFR2(h)): −13%
- Inhibition ratio/% (ZIPK(h)): 6%
